In patent publication US20240072809A1, “ASGPR-BINDING COMPOUNDS FOR THE DEGRADATION OF EXTRACELLULAR PROTEINS” (Avilar Therapeutics, Inc., priority 2020, published 2024):

Biological target: ASGPR (Homo sapiens (Human), UniProt P07306)
Experiment: Affinity to ASGPR measured by surface plasmon resonance (SPR)
Type: binding
Details: ASGPR ligands, Table 2; Biacore 8K, 25° C., steady state fit; read-out: SPR Binding External Calculation: KD

Sequence of ASGPR (P07306 whole entry): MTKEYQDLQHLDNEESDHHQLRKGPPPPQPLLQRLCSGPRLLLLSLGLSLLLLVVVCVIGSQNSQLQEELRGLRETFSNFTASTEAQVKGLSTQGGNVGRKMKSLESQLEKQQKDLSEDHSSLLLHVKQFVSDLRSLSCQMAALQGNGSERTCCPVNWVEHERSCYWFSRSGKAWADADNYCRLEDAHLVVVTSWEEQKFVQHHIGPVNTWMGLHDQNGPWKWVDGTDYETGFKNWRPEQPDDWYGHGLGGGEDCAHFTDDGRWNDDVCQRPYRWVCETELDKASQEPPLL

Kd [µM]	Compound
< 100	CO[C@@H]1O[C@H](CO)[C@H](O)[C@H](O)[C@H]1n1ccc(=O)cc1 [Compound A119, 1-((2R,3R,4R,5R,6R)-4,5-dihydroxy-6-(hydroxymethyl)-2-methoxytetrahydro-2H-pyran-3-yl)pyridin-4(1H)-one]
> 1000	N[C@H]1CO[C@H](CO)[C@H](O)[C@@H]1O [Compound A92, (2R,3R,4R,5S)-5-amino-2-(hydroxymethyl)tetrahydro-2H-pyran-3,4-diol]
< 100	OC[C@H]1OC[C@@H](Cn2cnnn2)[C@@H](O)[C@H]1O [Compound A196, (2R,3R,4R,5R)-5-((1H-tetrazol-1-yl)methyl)-2-(hydroxymethyl)tetrahydro-2H-pyran-3,4-diol]
> 1000	CO[C@@H]1O[C@H](CO)[C@H](O)[C@H](O)[C@H]1Nc1cccc(F)n1 [Compound A107, (2R,3R,4R,5R,6R)-5-((6-fluoropyridin-2-yl)amino)-2-(hydroxymethyl)-6-methoxytetrahydro-2H-pyran-3,4-diol]
< 100	CO[C@H]1O[C@H](CO)[C@H](O)[C@H](O)[C@H]1Nc1ncc(Cl)cc1F [Compound A113]
500 to 1000	OC[C@H]1OC[C@@H](c2ccc(F)cc2)[C@@H](O)[C@H]1O [Compound A164, (2R,3R,4R,5R)-5-(4-fluorophenyl)-2-(hydroxymethyl)tetrahydro-2H-pyran-3,4-diol]

Compound	Kd [µM]
CO[C@@H]1O[C@H](CO)[C@H](O)[C@H](O)[C@H]1Nc1nc(=O)[nH]c(=O)[nH]1 [Compound A112, 6-(((2R,3R,4R,5R,6R)-4,5-dihydroxy-6-(hydroxymethyl)-2-methoxytetrahydro-2H-pyran-3-yl)amino)-1,3,5-triazine-2,4(1H,3H)-dione]	< 100

Same assay, conditions: ASGPR ligands, Table 4; class symbols; read-out: ASGPR_PR Binding KD

Kd [µM]	Compound
< 100	OC[C@H]1OC[C@H](Nc2nc(Cl)nn3cccc23)[C@@H](O)[C@H]1O [Compound A304]
< 100	OC[C@H]1OC[C@H](Nc2nc(N3CCOCC3)ns2)[C@@H](O)[C@H]1O [Compound A340, (2R,3R,4R,5S)-2-(hydroxymethyl)-5-((3-morpholino-1,2,4-thiadiazol-5-yl)amino)tetrahydro-2H-pyran-3,4-diol]
< 100	N#Cc1nc(N[C@H]2CO[C@H](CO)[C@H](O)[C@@H]2O)c2cccn2n1 [Compound A373, 4-(((3S,4R,5R,6R)-4,5-dihydroxy-6-(hydroxymethyl)tetrahydro-2H-pyran-3-yl)amino)pyrrolo[2,1-f][1,2,4]triazine-2-carbonitrile]
< 100	OC[C@H]1OC[C@@H](Nc2nc(Cl)ns2)[C@@H](O)[C@H]1O [Compound A146, (2R,3R,4R,5R)-5-((3-chloro-1,2,4-thiadiazol-5-yl)amino)-2-(hydroxymethyl)tetrahydro-2H-pyran-3,4-diol]
< 100	COc1cc(C#N)cc(N[C@H]2CO[C@H](CO)[C@H](O)[C@@H]2O)n1 [Compound A364, 2-(((3S,4R,5R,6R)-4,5-dihydroxy-6-(hydroxymethyl)tetrahydro-2H-pyran-3-yl)amino)-6-methoxyisonicotinonitrile]
< 100	COc1nc(Cl)cc(N[C@H]2CO[C@H](CO)[C@H](O)[C@@H]2O)n1 [Compound A327]
100 to 500	CS(=O)(=O)N[C@@H]1CO[C@H](CO)[C@H](O)[C@@H]1O [Compound A131, N-((3R,4R,5R,6R)-4,5-dihydroxy-6-(hydroxymethyl)tetrahydro-2H-pyran-3-yl)methanesulfonamide]
< 100	OC[C@H]1OC[C@H](Nc2nc(C(F)(F)F)cs2)[C@@H](O)[C@H]1O [Compound A306]
< 100	N#Cc1nc(Cl)cc(N[C@H]2CO[C@H](CO)[C@H](O)[C@@H]2O)n1 [Compound A320]
< 100	OC[C@H]1OC[C@H](Nc2ccnc(Cl)n2)[C@@H](O)[C@H]1O [Compound A317]

Continued, compound first:

Compound	Kd [µM]
O=C(N[C@H]1CO[C@H](CO)[C@H](O)[C@@H]1O)c1ccccc1 [Compound A342, N-((3S,4R,5R,6R)-4,5-dihydroxy-6-(hydroxymethyl)tetrahydro-2H-pyran-3-yl)benzamide]	< 100
COc1cc(C#N)nc(N[C@H]2[C@H]3OC[C@](CO)(O3)[C@H](O)[C@@H]2O)n1 [Compound A294, 2-(((1S,2R,3R,4R,5S)-2,3-dihydroxy-1-(hydroxymethyl)-6,8-dioxabicyclo[3.2.1]octan-4-yl)amino)-6-methoxypyrimidine-4-carbonitrile]	< 100
O=c1ccn([C@H]2CO[C@H](CO)[C@H](O)[C@@H]2O)cc1 [Compound A345, 1-((3S,4R,5R,6R)-4,5-dihydroxy-6-(hydroxymethyl)tetrahydro-2H-pyran-3-yl)pyridin-4(1H)-one]	< 100
C=CCO[C@H]1O[C@H](CO)[C@H](O)[C@H](O)[C@H]1Nc1nc(Cl)ns1 [Compound A405, (2R,3R,4R,5R,6S)-6-(allyloxy)-5-((3-chloro-1,2,4-thiadiazol-5-yl)amino)-2-(hydroxymethyl)tetrahydro-2H-pyran-3,4-diol]	< 100
OC[C@H]1OC[C@@H](CN2CCCCC2)[C@@H](O)[C@H]1O [Compound A213, (2R,3R,4R,5R)-2-(hydroxymethyl)-5-(piperidin-1-ylmethyl)tetrahydro-2H-pyran-3,4-diol]	100 to 500
O=C1CCCN1[C@@H]1CO[C@H](CO)[C@H](O)[C@@H]1O [Compound A180, 1-((3R,4R,5R,6R)-4,5-dihydroxy-6-(hydroxymethyl)tetrahydro-2H-pyran-3-yl)pyrrolidin-2-one]	< 100
OC[C@@]12CO[C@@H](O1)[C@H](Nc1nc(Cl)ns1)[C@@H](O)[C@H]2O [Compound A287, (1S,2R,3R,4R,5S)-4-((3-chloro-1,2,4-thiadiazol-5-yl)amino)-1-(hydroxymethyl)-6,8-dioxabicyclo[3.2.1]octane-2,3-diol]	< 100

Same assay, conditions: ASGPR ligands, Table 4; numeric lower bounds; read-out: ASGPR_PR Binding KD

Kd [µM]	Compound
> 20	OC[C@H]1OC[C@H](Nc2ccc(Cl)nn2)[C@@H](O)[C@H]1O [Compound A316]
> 20	OC[C@H]1OC[C@@H](NC2=NCCC(C(F)(F)F)=N2)[C@@H](O)[C@H]1O [Compound A389]

More lines, now with the values behind:

Compound	Kd [µM]
CNC(=O)[C@@H]1CO[C@H](CO)[C@H](O)[C@@H]1O [Compound A400, (3R,4R,5R,6R)-4,5-dihydroxy-6-(hydroxymethyl)-N-methyltetrahydro-2H-pyran-3-carboxamide]	> 200
CO[C@@H]1O[C@H](CO)[C@H](O)[C@H](O)[C@H]1Nc1nc(C(=O)O)cs1 [Compound A385]	> 200
NC(=O)NC[C@@H]1CO[C@H](CO)[C@H](O)[C@@H]1O [Compound A403, 1-(((3R,4R,5R,6R)-4,5-dihydroxy-6-(hydroxymethyl)tetrahydro-2H-pyran-3-yl)methyl)urea]	> 20
OC[C@H]1OC[C@H](Nc2ncc(-c3ccccc3)cn2)[C@@H](O)[C@H]1O [Compound A311]	> 20
OC[C@H]1OC[C@@H](c2cncnc2)[C@@H](O)[C@H]1O [Compound A395, (2R,3R,4R,5R)-2-(hydroxymethyl)-5-(pyrimidin-5-yl)tetrahydro-2H-pyran-3,4-diol]	> 200
CN1CCN(C[C@@H]2CO[C@H](CO)[C@H](O)[C@@H]2O)CC1 [Compound A390, (2R,3R,4R,5R)-2-(hydroxymethyl)-5-((4-methylpiperazin-1-yl)methyl) tetrahydro-2H-pyran-3,4-diol]	> 200
